Values after ≈ are worked out from the molar mass of the structure shown.
What was measured:
Type in all cases: cell-based
Caspase-9 (human) = experiment: Caspase-9 level ELISA in MCF-7
Protocol: To measure caspase-9 levels, DRG® Caspase-9 (human) ELISA (EIA-4860) kits were used. In brief, the breast cancer cell line (MCF-7) extracts were prepared after elevation of apoptosis. The extracts were suspended in lysis buffer, and incubated at room temperature for 60 min and then centrifuge for 15 min. The microwell strips were washed with 400 µl wash buffer, followed by addition of 100 µl of sample diluent in duplicate to all standard wells, 100 µl of sample diluent in duplicate to the blank wells, 50 µl of sample diluent to the sample, and 50 µl of each sample in duplicate to the sample wells. Then the detection antibody 50 µl was added to all wells and incubated for 2 h at room temperature. The diluted antirabbit-IgG-HRP (anti-rabbit-immunoglobulin G-horseradish peroxidase) 100 µl was added to all wells together with blank wells. TMB substrate solution 100 µl was added to all wells and incubated for 15 min. at room temperature. Finally, the enzyme reaction was stopped by adding 100 µl of the stop solution to all wells. The absorbance of each microwell was measured at 450 nm using a spectrophotometer. The absorbance of the samples and standard were recorded.

[1] = test system: CACO2 cells (intestinal carcinoma cell line); experiment: MTT viability assay, CACO2; settings: Homo sapiens, Caco-2, 24 h
Protocol: The Cytotoxic activity was tested using the viability assay following the method reported by Mosmann, T., 1983 [21, 22]. HepG2 cells (liver carcinoma cell line), MCF-7cells (breast carcinoma cell line) and CACO2 cells (intestinal carcinoma cell line) (American Type Culture Collection ATCC, Rockville, MD) were applied through the tissue Culture Unit, the Egyptian Organization for Biological Products and Vaccines, Vacsera, Egypt. In brief, the tumor cell lines were suspended in medium at concentration 5 × 10^4 cell/ well in Corning® 96-well tissue culture plates and then incubated for 24 h. The alcoholic extract of F. cretica was then added into 96-well plates (three replicates) to achieve twelve concentrations. Six vehicle controls with media or 0.5% DMSO were run for each 96 well plate as a control. After incubating for 24 h, the number of viable cells was determined by the MTT test. Briefly, the media was removed from the 96 well plates and replaced with 100 µl of fresh culture RPMI 1640 medium without phenol red then 10 µl of the 12 mM MTT stock solution (5 mg of MTT in 1 ml of PBS) to each well including the untreated controls. […] Then, the optical density (OD) was measured at 590 nm with the microplate reader (SunRise, TECAN, Inc, USA) to determine the number of viable cells and the percentage of viability was calculated as follows: […]

[2] = test system: nitric oxide formation by LPS-stimulated RAW 264.7 murine macrophage cells; experiment: Nitric oxide inhibitory assay (Griess nitrite assay); settings: Mus musculus, RAW264.7; LPS-stimulated RAW 264.7, 24 h
Protocol: RAW 264.7 murine macrophage cells were stimulated by LPS (Lipopolysaccharide) to produce inflammatory mediators as NO, the produced nitrite (NO2-) was measured using the Griess reagent, RAW 264.7 murine macrophage-like cells were grown in phenol red-free RPMI-1640 containing 10% FBS. Cells were incubated for 24 h with LPS ([…]) in the presence of different concentrations of the plant extract. Then 50 µl of supernatant from each well of cell culture was transferred into 96-well microplates and equal volume of Griess reagent (1% sulfanilamide, 0.1% N-(1-naphthyl)-ethylenediamine hydrochloride, 2.5% H3PO4) was then added to the supernatant at room temperature. The absorbance at 550 nm was determined in UV-Vis microplate reader after 10 min. The concentrations of nitrite were derived from regression analysis using serial dilutions of sodium nitrite as a standard. Percentage of inhibition was calculated based on the ability of the extract to inhibit nitric oxide formation by cells compared with the control (cells in the media without the extract containing triggering agents and DMSO), which was considered as 0% inhibition.

Row | IC50 [1] [µg/mL] | SMILES | Caspase-9 level induction (Caspase-9 (human); MCF-7) [folds] | Caspase-9 (Conc.) (Caspase-9 (human); breast human carcinoma cell line (MCF-7), control 2.986 ± 0.31) [ng/mL] | IC50 [2] [µg/mL]
1 | 7.75 ± 0.4 (≈ 14.3 µM) | COc1cccc2c1C(=O)c1c(O)c3c(c(O)c1C2=O)C[C@@](O)(C(=O)CO)C[C@@H]3O[C@H]1C[C@H](N)[C@H](O)[C@H](C)O1 [Doxorubicin] | 8.67 | 25.84 ± 0.39 | 
2 |  | O=C1O[C@H]([C@@H](O)CO)C(O)=C1O [Ascorbic acid] |  |  | 18.7 ± 0.77 (≈ 106 µM)
